# Source: patent US8772500B2, “TRPV3 modulators” (AbbVie Inc., priority 2011, dated 2014)
# Legend:
# [1] = In vitro rat microsomal stability assay; assay type: in vitro ADME, rat (Sprague-Dawley); conditions: Sprague-Dawley, rat, 0.5 h, 0.5 μM, pH 7.4
# Summary of the method: (§1)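 Rat (Sprague-Dawley) and human liver microsomes were incubated with test compound and NADPH at 37 °C. Time-zero samples also received NADPH.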
# human TRPV3 = target: T1, human TRPV3 (Homo sapiens, UniProt Q8NET8); test: In vitro antagonism of recombinant human TRPV3 activation (FLIPR Tetra calcium assay, 2-APB as agonist); assay type: cell-based; conditions: HEK293 cells stably expressing human TRPV3; 2-APB 80 μM; range class; read-out: IC50 (reported range)
# T1 construct: expressed in transfected cells
# T1 sequence (Q8NET8 1-790): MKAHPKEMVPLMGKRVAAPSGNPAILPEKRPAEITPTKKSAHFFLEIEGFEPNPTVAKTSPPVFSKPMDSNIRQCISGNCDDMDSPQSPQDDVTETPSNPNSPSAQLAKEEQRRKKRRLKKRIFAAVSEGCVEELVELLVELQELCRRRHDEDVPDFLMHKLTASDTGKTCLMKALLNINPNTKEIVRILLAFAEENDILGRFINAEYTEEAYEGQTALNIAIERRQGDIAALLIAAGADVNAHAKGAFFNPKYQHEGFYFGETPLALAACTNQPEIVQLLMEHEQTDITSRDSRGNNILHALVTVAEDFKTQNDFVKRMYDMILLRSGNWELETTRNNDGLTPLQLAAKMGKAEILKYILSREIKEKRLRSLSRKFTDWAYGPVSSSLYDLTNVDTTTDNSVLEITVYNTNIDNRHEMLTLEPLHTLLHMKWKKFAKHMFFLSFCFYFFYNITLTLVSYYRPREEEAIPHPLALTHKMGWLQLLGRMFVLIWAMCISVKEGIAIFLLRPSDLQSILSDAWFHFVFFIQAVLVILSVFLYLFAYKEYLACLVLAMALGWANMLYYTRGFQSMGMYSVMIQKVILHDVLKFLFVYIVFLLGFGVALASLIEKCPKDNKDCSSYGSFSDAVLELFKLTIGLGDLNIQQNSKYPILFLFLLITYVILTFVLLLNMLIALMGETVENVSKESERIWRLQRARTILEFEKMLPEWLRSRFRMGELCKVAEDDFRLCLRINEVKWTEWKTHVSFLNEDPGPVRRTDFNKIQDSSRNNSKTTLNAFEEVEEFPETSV
# Summary of the method: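 Readout is FLIPR fluorescence, max minus min as percent of uninhibited 2-APB response, giving IC50 (usually mean of ≥2 runs). Stable human TRPV3 HEK293 cells, Calcium-4 dye-loaded, got test compound then, three minutes later, 80 μM 2-APB (EC80); run length 10 min.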
# [2] = In vitro human microsomal stability assay; assay type: in vitro ADME; conditions: human, 0.5 h, 0.5 μM, pH 7.4
# Summary of the method: as §1
smiles,measurement,setting,value
"OC1CC(c2ccc(Cl)c(Cl)c2)(C(O)c2ccccn2)C1 [Example 247, cis-3-(3,4-dichlorophenyl)-3-[(R)-hydroxy(pyridin-2-yl)methyl]cyclobutanol]",RAT MICROSOMAL STABILITY (% REMAINING AFTER 30 MINUTES),[1],>85%
same,IC50,human TRPV3,1.1 to 5 µM
same,HUMAN MICROSOMAL STABILITY (% REMAINING AFTER 30 MINUTES),[2],62%
"ON=C1CC(c2ccc(OC(F)(F)F)cc2)([C@H](O)c2ccccn2)C1 (stereo partly drawn) [Example 248, (S)-{3-(hydroxyimino)-1-[4-(trifluoromethoxy)phenyl]cyclobutyl}(pyridin-2-yl)methanol]",RAT MICROSOMAL STABILITY (% REMAINING AFTER 30 MINUTES),[1],29%
same,IC50,human TRPV3,1.1 to 5 µM
same,HUMAN MICROSOMAL STABILITY (% REMAINING AFTER 30 MINUTES),[2],70%
"CON=C1CC(c2ccc(OC(F)(F)F)cc2)([C@H](O)c2ccccn2)C1 (stereo partly drawn) [Example 249, (S)-{3-(methoxyimino)-1-[4-(trifluoromethoxy)phenyl]cyclobutyl}(pyridin-2-yl)methanol]",RAT MICROSOMAL STABILITY (% REMAINING AFTER 30 MINUTES),[1],3.2%
same,IC50,human TRPV3,1.1 to 5 µM
same,HUMAN MICROSOMAL STABILITY (% REMAINING AFTER 30 MINUTES),[2],61%
"C[C@]1(O)C[C@@](c2ccc(OC(F)(F)F)cc2)([C@@H](O)c2ccccn2)C1 [Example 250, cis-3-[(R)-hydroxy(pyridin-2-yl)methyl]-1-methyl-3-[4-(trifluoromethoxy)-phenyl]cyclobutanol]",RAT MICROSOMAL STABILITY (% REMAINING AFTER 30 MINUTES),[1],70%
same,IC50,human TRPV3,5.1 to 20 µM
same,HUMAN MICROSOMAL STABILITY (% REMAINING AFTER 30 MINUTES),[2],70%
"Cc1ccccc1CC1(C(O)c2ccccn2)CCC1 (stereo not drawn) [Example 253, [1-(2-methylbenzyl)cyclobutyl](pyridin-2-yl)methanol]",RAT MICROSOMAL STABILITY (% REMAINING AFTER 30 MINUTES),[1],0.017%
same,IC50,human TRPV3,1.1 to 5 µM
same,HUMAN MICROSOMAL STABILITY (% REMAINING AFTER 30 MINUTES),[2],0.21%
"OC(c1ccccn1)C1(Cc2cccc(F)c2)CCC1 (stereo not drawn) [Example 254, [1-(3-fluorobenzyl)cyclobutyl](pyridin-2-yl)methanol]",RAT MICROSOMAL STABILITY (% REMAINING AFTER 30 MINUTES),[1],0.57%
same,IC50,human TRPV3,1.1 to 5 µM
same,HUMAN MICROSOMAL STABILITY (% REMAINING AFTER 30 MINUTES),[2],1.1%
"OC(c1ccccn1)C1(c2ccc(F)c(Cl)c2)CC2(C1)OCCO2 (stereo not drawn) [Example 255, [2-(3-chloro-4-fluorophenyl)-5,8-dioxaspiro[3.4]oct-2-yl](pyridin-2-yl)-methanol]",RAT MICROSOMAL STABILITY (% REMAINING AFTER 30 MINUTES),[1],<0.01%
same,IC50,human TRPV3,5.1 to 20 µM
same,HUMAN MICROSOMAL STABILITY (% REMAINING AFTER 30 MINUTES),[2],54%
"O=C1CC(c2ccc(F)c(Cl)c2)(C(O)c2ccccn2)C1 (stereo not drawn) [Example 258, 3-(3-chloro-4-fluorophenyl)-3-[hydroxy(pyridin-2-yl)methyl]cyclobutanone]",RAT MICROSOMAL STABILITY (% REMAINING AFTER 30 MINUTES),[1],53%
same,IC50,human TRPV3,5.1 to 20 µM
same,HUMAN MICROSOMAL STABILITY (% REMAINING AFTER 30 MINUTES),[2],70%
"OC(c1ccccn1)C1(C2=CCC(F)(F)CC2)CCC1 (stereo not drawn) [Example 260, [1-(4,4-difluorocyclohex-1-en-1-yl)cyclobutyl](pyridin-2-yl)methanol]",RAT MICROSOMAL STABILITY (% REMAINING AFTER 30 MINUTES),[1],<0.01%
same,IC50,human TRPV3,5.1 to 20 µM
same,HUMAN MICROSOMAL STABILITY (% REMAINING AFTER 30 MINUTES),[2],12%
"OC(c1ccccn1)C1(C2=CCCC(C(F)(F)F)C2)CCC1 (stereo not drawn) [Example 261, pyridin-2-yl{1-[5-(trifluoromethyl)cyclohex-1-en-1-yl]cyclobutyl}methanol]",RAT MICROSOMAL STABILITY (% REMAINING AFTER 30 MINUTES),[1],<0.01%
same,IC50,human TRPV3,1.1 to 5 µM
same,HUMAN MICROSOMAL STABILITY (% REMAINING AFTER 30 MINUTES),[2],0.01%
"CC(C)(C)OC(=O)N1CCC(C2(C(O)c3ccccn3)CCC2)C1 (stereo not drawn) [Example 265, tert-butyl 3-{1-[hydroxy(pyridin-2-yl)methyl]cyclobutyl}pyrrolidine-1-carboxylate]",RAT MICROSOMAL STABILITY (% REMAINING AFTER 30 MINUTES),[1],0.059%
same,IC50,human TRPV3,5.1 to 20 µM
same,HUMAN MICROSOMAL STABILITY (% REMAINING AFTER 30 MINUTES),[2],43%
"OC(c1ccccn1)C1(c2nc3ccccc3s2)CCC1 (stereo not drawn) [Example 266, [1-(1,3-benzothiazol-2-yl)cyclobutyl](pyridin-2-yl)methanol]",RAT MICROSOMAL STABILITY (% REMAINING AFTER 30 MINUTES),[1],0.14%
same,IC50,human TRPV3,1.1 to 5 µM
same,HUMAN MICROSOMAL STABILITY (% REMAINING AFTER 30 MINUTES),[2],46%
"CN(C)N=C1CC(c2ccc(OC(F)(F)F)cc2)([C@H](O)c2ccccn2)C1 (stereo partly drawn) [Example 267, (S)-{3-(dimethylhydrazinylidene)-1-[4-(trifluoromethoxy)phenyl]-cyclobutyl}(pyridin-2-yl)methanol]",RAT MICROSOMAL STABILITY (% REMAINING AFTER 30 MINUTES),[1],10%
same,IC50,human TRPV3,1.1 to 5 µM
same,HUMAN MICROSOMAL STABILITY (% REMAINING AFTER 30 MINUTES),[2],64%
"OC(c1ccccn1)C1(c2nc3ccccc3o2)CCC1 (stereo not drawn) [Example 271, [1-(1,3-benzoxazol-2-yl)cyclobutyl](pyridin-2-yl)methanol]",RAT MICROSOMAL STABILITY (% REMAINING AFTER 30 MINUTES),[1],8.6%
same,IC50,human TRPV3,1.1 to 5 µM
same,HUMAN MICROSOMAL STABILITY (% REMAINING AFTER 30 MINUTES),[2],62%
"OC1CC(c2cccc(OC(F)(F)F)c2)(C(O)c2ccccn2)C1 [Example 272, cis-3-[(S)-hydroxy(pyridin-2-yl)methyl]-3-[3-(trifluoromethoxy)phenyl]-cyclobutanol]",RAT MICROSOMAL STABILITY (% REMAINING AFTER 30 MINUTES),[1],48%
same,IC50,human TRPV3,0.05 to 0.5 µM
same,HUMAN MICROSOMAL STABILITY (% REMAINING AFTER 30 MINUTES),[2],54%
"OC1CC(c2cccc(OC(F)(F)F)c2)(C(O)c2ccccn2)C1 [Example 273, trans-3-[(S)-hydroxy(pyridin-2-yl)methyl]-3-[3-(trifluoromethoxy)phenyl]-cyclobutanol]",RAT MICROSOMAL STABILITY (% REMAINING AFTER 30 MINUTES),[1],65%
same,IC50,human TRPV3,0.05 to 0.5 µM
same,HUMAN MICROSOMAL STABILITY (% REMAINING AFTER 30 MINUTES),[2],42%
"OC(c1ccccn1)C1(C2CCC(F)(F)CC2)CCC1 (stereo not drawn) [Example 274, [1-(4,4-difluorocyclohexyl)cyclobutyl](pyridin-2-yl)methanol]",RAT MICROSOMAL STABILITY (% REMAINING AFTER 30 MINUTES),[1],10%
same,IC50,human TRPV3,1.1 to 5 µM
same,HUMAN MICROSOMAL STABILITY (% REMAINING AFTER 30 MINUTES),[2],55%
"Cn1c(C2(C(O)c3ccccn3)CCC2)nc2ccccc21 (stereo not drawn) [Example 275, [1-(1-methyl-1H-benzimidazol-2-yl)cyclobutyl](pyridin-2-yl)methanol]",RAT MICROSOMAL STABILITY (% REMAINING AFTER 30 MINUTES),[1],5.7%
same,IC50,human TRPV3,5.1 to 20 µM
same,HUMAN MICROSOMAL STABILITY (% REMAINING AFTER 30 MINUTES),[2],67%
"OC1CC(c2ccc(F)c(Cl)c2)([C@H](O)c2ccccn2)C1 (stereo partly drawn) [Example 276, 3-(3-chloro-4-fluorophenyl)-3-[(S)-hydroxy(pyridin-2-yl)methyl]-cyclobutanol]",RAT MICROSOMAL STABILITY (% REMAINING AFTER 30 MINUTES),[1],73%
same,IC50,human TRPV3,0.05 to 0.5 µM
same,HUMAN MICROSOMAL STABILITY (% REMAINING AFTER 30 MINUTES),[2],72%
"O=C1CC(c2cc(C(F)(F)F)ccn2)([C@H](O)c2ccccn2)C1 [Example 277, 3-[(S)-hydroxy(pyridin-2-yl)methyl]-3-[4-(trifluoromethyl)pyridin-2-yl]-cyclobutanone]",RAT MICROSOMAL STABILITY (% REMAINING AFTER 30 MINUTES),[1],>85%
same,IC50,human TRPV3,1.1 to 5 µM
same,HUMAN MICROSOMAL STABILITY (% REMAINING AFTER 30 MINUTES),[2],>85%
"O=C1CC(c2cc(C(F)(F)F)ccn2)([C@@H](O)c2ccccn2)C1 [Example 278, 3-[(R)-hydroxy(pyridin-2-yl)methyl]-3-[4-(trifluoromethyl)pyridin-2-yl]-cyclobutanone]",RAT MICROSOMAL STABILITY (% REMAINING AFTER 30 MINUTES),[1],>85%
same,IC50,human TRPV3,5.1 to 20 µM
same,HUMAN MICROSOMAL STABILITY (% REMAINING AFTER 30 MINUTES),[2],83%
"CC(C)(C)OC(=O)N1CCC(C2(C(O)c3ccccn3)CCC2)CC1 (stereo not drawn) [Example 279, tert-butyl 4-{1-[hydroxy(pyridin-2-yl)methyl]cyclobutyl}piperidine-1-carboxylate]",RAT MICROSOMAL STABILITY (% REMAINING AFTER 30 MINUTES),[1],<0.01%
same,IC50,human TRPV3,5.1 to 20 µM
same,HUMAN MICROSOMAL STABILITY (% REMAINING AFTER 30 MINUTES),[2],22%
"OC(c1ccccn1)C1(C2CCC(C(F)(F)F)CC2)CCC1 (stereo not drawn) [Example 280, pyridin-2-yl{1-[4-(trifluoromethyl)cyclohexyl]cyclobutyl}methanol]",RAT MICROSOMAL STABILITY (% REMAINING AFTER 30 MINUTES),[1],<0.01%
same,IC50,human TRPV3,1.1 to 5 µM
same,HUMAN MICROSOMAL STABILITY (% REMAINING AFTER 30 MINUTES),[2],9.0%
